Test results as given in patent US20150274719A1, “AMINO-SUBSTITUTED IMIDAZO[1,2-A]PYRIDINECARBOXAMIDES AND THEIR USE” (BAYER PHARMA AKTIENGESELLSCHAFT, priority 2012, published 2015).

Biological target: T1, recombinant guanylate cyclase reporter cell line (Rattus norvegicus, UniProt P19686+P20595)
T1 construct: expressed in transfected cells; host or cells: recombinant reporter cell line
T1 sequence (P19686 1-690): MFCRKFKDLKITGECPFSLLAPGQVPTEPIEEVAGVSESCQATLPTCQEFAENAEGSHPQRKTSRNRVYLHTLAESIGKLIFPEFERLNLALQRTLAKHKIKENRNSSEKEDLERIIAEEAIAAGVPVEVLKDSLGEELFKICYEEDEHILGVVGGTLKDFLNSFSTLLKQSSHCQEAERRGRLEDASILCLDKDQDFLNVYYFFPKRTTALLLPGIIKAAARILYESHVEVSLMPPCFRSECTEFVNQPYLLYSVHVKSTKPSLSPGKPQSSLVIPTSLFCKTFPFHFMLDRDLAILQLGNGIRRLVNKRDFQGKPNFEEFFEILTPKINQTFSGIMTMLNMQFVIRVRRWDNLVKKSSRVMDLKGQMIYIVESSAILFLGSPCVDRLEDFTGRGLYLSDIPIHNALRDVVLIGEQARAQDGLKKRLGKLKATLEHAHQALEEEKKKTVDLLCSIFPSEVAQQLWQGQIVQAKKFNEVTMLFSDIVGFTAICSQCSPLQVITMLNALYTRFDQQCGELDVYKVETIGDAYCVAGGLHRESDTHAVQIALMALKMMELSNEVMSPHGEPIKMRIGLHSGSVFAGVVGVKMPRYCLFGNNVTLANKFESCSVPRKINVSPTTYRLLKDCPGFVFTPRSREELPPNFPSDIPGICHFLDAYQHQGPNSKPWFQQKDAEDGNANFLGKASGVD
T1 sequence (P20595 1-619): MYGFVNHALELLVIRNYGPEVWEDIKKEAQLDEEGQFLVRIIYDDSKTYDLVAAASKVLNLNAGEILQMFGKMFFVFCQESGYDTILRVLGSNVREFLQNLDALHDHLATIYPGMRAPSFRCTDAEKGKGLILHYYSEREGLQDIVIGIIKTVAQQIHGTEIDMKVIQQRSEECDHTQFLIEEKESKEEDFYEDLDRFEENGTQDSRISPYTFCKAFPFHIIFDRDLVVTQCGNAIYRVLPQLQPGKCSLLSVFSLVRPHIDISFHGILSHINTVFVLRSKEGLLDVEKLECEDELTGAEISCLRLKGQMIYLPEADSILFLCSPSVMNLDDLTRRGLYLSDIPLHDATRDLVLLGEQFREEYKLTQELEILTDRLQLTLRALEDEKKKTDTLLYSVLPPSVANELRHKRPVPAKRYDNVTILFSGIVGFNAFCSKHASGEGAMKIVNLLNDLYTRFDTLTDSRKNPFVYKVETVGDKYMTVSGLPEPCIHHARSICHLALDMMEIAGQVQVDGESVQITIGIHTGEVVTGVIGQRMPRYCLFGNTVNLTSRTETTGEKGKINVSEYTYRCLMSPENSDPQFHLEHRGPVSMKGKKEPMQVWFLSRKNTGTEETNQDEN
Test: Action on recombinant guanylate cyclase reporter cell line
Assay type: cell-based
Settings: in some cases mean values from individual determinations
Outline: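 Read-out: MEC (minimal effective concentration) in cells. Reporter line carries recombinant sGC. Some values are averages of single runs.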

Row | Compound | MEC (minimal effective concentration) [µM]
1 | COc1cccc(C(N)CNC(=O)c2c(C)nc3c(OCc4c(F)cccc4F)cc(C)cn23)c1 (racemic) [Example 378, rac-N-[2-amino-2-(3-methoxyphenyl)ethyl]-8-[(2,6-difluorobenzyl)oxy]-2,6-dimethylimidazo[1,2-a]pyridine-3-carboxamide] | 1.00
2 | Cc1cc(OCc2c(F)cccc2F)c2nc(C)c(C(=O)NC(CN)c3cccc(OC(F)(F)F)c3)n2c1 (racemic) [Example 380, rac-N-{2-amino-1-[3-(trifluoromethoxy)phenyl]ethyl}-8-[(2,6-difluorobenzyl)oxy]-2,6-dimethylimidazo[1,2-a]pyridine-3-carboxamide] | 1.00
3 | COc1ccc(CC(C)(CN)NC(=O)c2c(C)nc3c(OCc4c(F)cccc4F)cc(C)cn23)cc1 (racemic) [Example 386, rac-N-[1-amino-3-(4-methoxyphenyl)-2-methylpropan-2-yl]-8-[(2,6-difluorobenzyl)oxy]-2,6-dimethylimidazo[1,2-a]pyridine-3-carboxamide] | 0.65
4 | Cc1cc(OCc2c(F)cccc2F)c2nc(C)c(C(=O)NC(CN)c3cnn(C)c3)n2c1 (racemic) [Example 387, rac-N-[2-amino-1-(1-methyl-1H-pyrazol-4-yl)ethyl]-8-[(2,6-difluorobenzyl)oxy]-2,6-dimethylimidazo[1,2-a]pyridine-3-carboxamide] | 10.0
5 | Cc1cc(OCc2c(F)cccc2F)c2nc(C)c(C(=O)NC(CN)c3ccc4c(c3)OCCO4)n2c1 (racemic) [Example 388, rac-N-[2-amino-1-(2,3-dihydro-1,4-benzodioxin-6-yl)ethyl]-8-[(2,6-difluorobenzyl)oxy]-2,6-dimethylimidazo[1,2-a]pyridine-3-carboxamide] | 0.30
6 | Cc1cc(OCc2c(F)cccc2F)c2nc(C)c(C(=O)NC(CN)c3csc4ccccc34)n2c1 (racemic) [Example 389, rac-N-[2-amino-1-(1-benzothiophen-3-yl)ethyl]-8-[(2,6-difluorobenzyl)oxy]-2,6-dimethylimidazo[1,2-a]pyridine-3-carboxamide] | 1.00
7 | Cc1cc(OCc2c(F)cccc2F)c2nc(C)c(C(=O)NC(CN)c3cc(F)c(F)c(F)c3)n2c1 (racemic) [Example 390, rac-N-[2-amino-1-(3,4,5-trifluorophenyl)ethyl]-8-[(2,6-difluorobenzyl)oxy]-2,6-dimethylimidazo[1,2-a]pyridine-3-carboxamide] | 0.30
8 | CSCCC(CN)NC(=O)c1c(C)nc2c(OCc3c(F)cccc3F)cc(C)cn12 (racemic) [Example 391, rac-N-[1-amino-4-(methylsulfanyl)butan-2-yl]-8-[(2,6-difluorobenzyl)oxy]-2,6-dimethylimidazo[1,2-a]pyridine-3-carboxamide] | 0.10
9 | Cc1cc(OCc2c(F)cccc2F)c2nc(C)c(C(=O)NC(CN)c3cccc(OC(F)F)c3)n2c1 (racemic) [Example 392, rac-N-{2-amino-1-[3-(difluoromethoxy)phenyl]ethyl}-8-[(2,6-difluorobenzyl)oxy]-2,6-dimethylimidazo[1,2-a]pyridine-3-carboxamide] | 1.00
10 | Cc1cc(OCc2c(F)cccc2F)c2nc(C)c(C(=O)NC(CN)c3cccc(OCCO)c3)n2c1 (racemic) [Example 393, rac-N-{2-amino-1-[3-(2-hydroxyethoxy)phenyl]ethyl}-8-[(2,6-difluorobenzyl)oxy]-2,6-dimethylimidazo[1,2-a]pyridine-3-carboxamide] | 1.00
11 | Cc1cc(OCc2c(F)cccc2F)c2nc(C)c(C(=O)NC(CN)c3cccc(C(F)(F)F)c3)n2c1 (racemic) [Example 394, rac-N-{2-amino-1-[3-(trifluoromethyl)phenyl]ethyl}-8-[(2,6-difluorobenzyl)oxy]-2,6-dimethylimidazo[1,2-a]pyridine-3-carboxamide] | 0.30
12 | CC(=O)Nc1cccc(C(CN)NC(=O)c2c(C)nc3c(OCc4c(F)cccc4F)cc(C)cn23)c1 (racemic) [Example 396, rac-N-[1-(3-acetamidophenyl)-2-aminoethyl]-8-[(2,6-difluorobenzyl)oxy]-2,6-dimethylimidazo[1,2-a]pyridine-3-carboxamide] | 3.00
13 | COC(=O)c1cccc(C(N)CNC(=O)c2c(C)nc3c(OCc4c(F)cccc4F)cc(C)cn23)c1 (racemic) [Example 399, rac-Methyl 3-{1-amino-2-[({8-[(2,6-difluorobenzyl)oxy]-2,6-dimethylimidazo[1,2-a]pyridin-3-yl}carbonyl)amino]ethyl}benzoate] | 1.00
14 | Cc1cc(OCc2c(F)cccc2F)c2nc(C)c(C(=O)NCC(N)C#N)n2c1 (racemic) [Example 400, rac-N-(2-amino-2-cyanoethyl)-8-[(2,6-difluorobenzyl)oxy]-2,6-dimethylimidazo[1,2-a]pyridine-3-carboxamide] | 0.65
15 | CC=CCC(N)CNC(=O)c1c(C)nc2c(OCc3c(F)cccc3F)cc(C)cn12 (racemic) [Example 406, rac-N-[(4E/Z)-2-aminohex-4-en-1-yl]-8-[(2,6-difluorobenzyl)oxy]-2,6-dimethylimidazo[1,2-a]pyridine-3-carboxamide] | 0.10
16 | CSCCC(N)CNC(=O)c1c(C)nc2c(OCc3c(F)cccc3F)cc(C)cn12 (racemic) [Example 412, rac-N-[2-amino-4-(methylsulfanyl)butyl]-8-[(2,6-difluorobenzyl)oxy]-2,6-dimethylimidazo[1,2-a]pyridine-3-carboxamide] | 0.10

Now from value to molecule:

Row | MEC (minimal effective concentration) [µM] | Compound
17 | 1.00 | Cc1cc(OCc2c(F)cccc2F)c2nc(C)c(C(=O)NC(CN)c3ccc4ccccc4c3)n2c1 (racemic) [Example 379, rac-N-[2-amino-1-(2-naphthyl)ethyl]-8-[(2,6-difluorobenzyl)oxy]-2,6-dimethylimidazo[1,2-a]pyridine-3-carboxamide]
18 | 0.30 | Cc1cc(OCc2c(F)cccc2F)c2nc(C)c(C(=O)NC(CN)c3ccc4c(c3)OCO4)n2c1 (racemic) [Example 381, rac-N-[2-amino-1-(1,3-benzodioxol-5-yl)ethyl]-8-[(2,6-difluorobenzyl)oxy]-2,6-dimethylimidazo[1,2-a]pyridine-3-carboxamide]
19 | 0.30 | COc1cccc(C(CN)NC(=O)c2c(C)nc3c(OCc4c(F)cccc4F)cc(C)cn23)c1 (racemic) [Example 382, rac-N-[2-amino-1-(3-methoxyphenyl)ethyl]-8-[(2,6-difluorobenzyl)oxy]-2,6-dimethylimidazo[1,2-a]pyridine-3-carboxamide]
20 | 0.30 | Cc1cc(OCc2c(F)cccc2F)c2nc(C)c(C(=O)NC(CN)c3cccc(Br)c3)n2c1 (racemic) [Example 383, rac-N-[2-amino-1-(3-bromophenyl)ethyl]-8-[(2,6-difluorobenzyl)oxy]-2,6-dimethylimidazo[1,2-a]pyridine-3-carboxamide]
21 | 0.30 | Cc1cc(OCc2c(F)cccc2F)c2nc(C)c(C(=O)NC(CN)c3ccc([N+](=O)[O-])cc3)n2c1 (racemic) [Example 384, rac-N-[2-amino-1-(4-nitrophenyl)ethyl]-8-[(2,6-difluorobenzyl)oxy]-2,6-dimethylimidazo[1,2-a]pyridine-3-carboxamide]
22 | 1.00 | C=Cc1cccc(C(CN)NC(=O)c2c(C)nc3c(OCc4c(F)cccc4F)cc(C)cn23)c1 (racemic) [Example 385, rac-N-[2-amino-1-(3-ethenylphenyl)ethyl]-8-[(2,6-difluorobenzyl)oxy]-2,6-dimethylimidazo[1,2-a]pyridine-3-carboxamide]
23 | 1.00 | Cc1cc(OCc2c(F)cccc2F)c2nc(C)c(C(=O)NC(CN)c3ccc4ncccc4c3)n2c1 (racemic) [Example 395, rac-N-[2-amino-1-(quinolin-6-yl)ethyl]-8-[(2,6-difluorobenzyl)oxy]-2,6-dimethylimidazo[1,2-a]pyridine-3-carboxamide]
